Source: patent publication US12491226B2, “Mastic-derived natural protectants” (BARENTZ NORTH AMERICA, LLC, priority 2018, dated 2025)

Key:
[1] = system: mixture of fungi (C. albicans (ATCC #10231) and A. brasiliensis (ATCC #16404)); assay: CTFA Preservative Challenge Test on shampoo, mixed fungi; type: cell-based; conditions: for Mixed Fungi Day 7 Count: shampoo containing sample, initial count 7.9×10^5 cfu/mL, surviving organisms on day 7; for Mixed Fungi Day 7 kill reduction: shampoo, versus initial count 7.9×10^5 cfu/mL
Method: (§1) The CTFA Preservative Challenge Test was performed on a shampoo containing the samples below against a mixture of fungi (C. albicans (ATCC #10231) and A. brasiliensis (ATCC #16404)) having an initial count of 7.9×10^5 cfu/mL or a mixture of bacteria having an initial count of 4×10^6 cfu/mL. The shampoos inoculated with bacteria were allowed to stand for 14 days and the shampoos inoculated with fungi were allowed to stand for 7 days. The samples were evaluated for surviving organisms on day 7 for fungi-innoculated shampoos and days 7 and 14 for bacteria-innoculated shampoos.

mixture of bacteria = assay: CTFA Preservative Challenge Test on shampoo, mixed bacteria (with Kull synergism calculation); type: cell-based; conditions: for Mixed Bacteria Day 7 Count / Mixed Bacteria Day 14 Count: shampoo containing sample, initial count 4×10^6 cfu/mL; for Mixed Bacteria Day 7 Count: surviving organisms on day 7; for Mixed Bacteria Day 14 Count: surviving organisms on day 14; for Mixed Bacteria Day 7 kill reduction / Mixed Bacteria Day 14 kill reduction: shampoo, versus initial count 4×10^6 cfu/mL
Method: as §1
From the table, synergism for the combinations above against mixed bacteria in shampoo was calculated by the method described in C. E. Kull et al., “Mixtures of Quaternary Ammonium Compounds and Long-chain Fatty Acids as Antifungal Agents”, Applied Microbiology, 9:538-541 (1961). The synergism value (QA/Qa+QB/Qb) was determined. […] Qa is the concentration of the first component alone (in percent by weight) required to yield 100% retardation of the bacteria. Qb is the concentration of the second component alone (in percent by weight) required to yield 100% retardation of the bacteria. When the value of (QA/Qa+QB/Qb) is less than one, the mixture is synergistic. Values for (QA/Qa+QB/Qb) of 1 and greater represent an additive effect and an antagonistic effect, respectively. Here, (QA/Qa+QB/Qb) is (([…])+([…]) or <0.75. Accordingly, the mixture of 0.2% mastic oil and 0.05% piroctine olamine is synergistic. The mixture of 2% mastic water and 2% ELA, the mixture of 2% mastic water and 0.5% sodium p-anisate, and the mixture of 4% mastic water and 1% quinic acid are also synergistic.

Row | SMILES | Mixed Fungi Day 7 Count [1] | Mixed Fungi Day 7 kill reduction [1] | Mixed Bacteria Day 7 Count (mixture of bacteria) | Mixed Bacteria Day 14 Count (mixture of bacteria) | Mixed Bacteria Day 7 kill reduction (mixture of bacteria) | Mixed Bacteria Day 14 kill reduction (mixture of bacteria)
1 | Cc1cc(CC(C)CC(C)(C)C)n(O)c(=O)c1.NCCO (stereo not drawn) [0.1% Piroctine olamine, Piroctine olamine] | 5.9 × 10^4 cfu/mL | (<90% kill | 1.2 × 10^5 cfu/mL | 1.3 × 10^5 cfu/mL | (<97% kill | (<97% kill
2 | COc1ccc(C(=O)[O-])cc1.[Na+] [1% Sodium p-anisate, sodium p-anisate] | – | – | 2.3 × 10^4 cfu/mL | – | (<99% kill | –
3 | O=C(O)[C@]1(O)C[C@@H](O)[C@@H](O)[C@H](O)C1 [2.5% Quinic acid, quinic acid] | 1.4 × 10^5 cfu/mL | (<90% kill | – | – | – | –
4 | CCCCCCCCCCCC(=O)N[C@@H](CCCN=C(N)N)C(=O)OCC.Cl [5% ELA HCl, ethyl lauroyl arginate HCl] | – | – | – | 1.3 × 10^2 cfu/mL | – | (<99.9% kill
